From patent US20130111611A1, “METHOD TO MEASURE THE METABOLIC RATE OR RATE OF GLUCOSE CONSUMPTION OF CELLS OR TISSUES WITH HIGH SPATIOTEMPORAL RESOLUTION USING A GLUCOSE NANOSENSOR” (CARNEGIE, INSTITUTION OF WASHINGTON, priority 2010, published 2013)

Tested on: cultured astrocytes
Assay: Intracellular glucose and glycolytic rate in cultured astrocytes with FRET glucose nanosensor (ITM)
Format: cell-based, mouse
Conditions: for glycolytic rate obtained with the GLUT inhibitor: cultured astrocytes, n=20 cells in three paired experiments, not significantly different between inhibitors; for effect on the intracellular concentration of glucose: cultured astrocytes exposed to the compound, FIG. 3a
Description: In another embodiment, the disruption of the glucose steady-state can be attained by blocking the glucose transporter GLUT with a suitable inhibitor (ITM).
Independent of the embodiment of the method used to disrupt the steady-state, the rate of glycolysis is estimated by fitting a monoexponential function to the time course of decay. In one embodiment, the metabolic rate is computed from the rate of glucose concentration decrease at the point when the intracellular concentration becomes equal to the extracellular concentration, for instance at 0.3 mM (interrupted line in FIG. 2b). In a second embodiment, in the presence of a GLUT blocker, the metabolic rate is computed from the rate of glucose concentration decrease at any glucose concentration.
Animals used were mixed F1 male mice (C57BU6J×CBA/J), kept in an animal room under SPF conditions at a room temperature of 20±2° C., in a 12/12 h light/dark cycle with free access to food and water. All experiments were approved by the Centro de Estudios Científicos Animal Care and Use Committee. Mixed cortical cultures of neuronal and glial cells were prepared from 1-3 day-old neonatal mice as described in Loaiza et al.^19, except that N1-N2/MEM was replaced by B27-supplemented Neurobasal medium (Gibco). Cultures were maintained at 37° C. in a humidified atmosphere of 5% CO2. At days 5-7, cultures in 35 mm dishes were transfected with 5 μg plasmid DNA using Lipofectamine 2000 (Gibco) or alternatively, exposed to 5×10^6 PFU of adenoviral vector.
Experiments were carried out at room temperature (22-25° C.). Cultured cells were imaged in HEPES-buffered saline containing (in mM): 136 NaCl, 3 KCl, 1.25 CaCl2, 1.25 MgSO4, 1-2 glucose, 2 sodium lactate, 10 HEPES, pH 7.4 or in 95% O2/5% CO2-gassed buffer of the following composition (in mM): 112 NaCl, 3 KCl, 1.25 CaCl2, 1.25 MgCl2, 1-2 glucose, 2 sodium lactate, 10 HEPES, 24 NaHCO3, pH 7.4. Brain slices were superfused with a 95% O2/5% CO2-gassed buffer containing (in mM): 126 NaCl, 3 KCl, 1.25 NaH2PO4, 1.25 CaCl2, 1.25 MgCl2, 2-3 glucose, 1 sodium lactate, 26 NaHCO3, pH 7.4. When using higher K^+ concentrations, NaCl was adjusted to maintain isotonicity. Cultures and slices were imaged with an Olympus IX70 inverted microscope equipped with a 40× oil-immersion objective, a Cairn monochromator with Optosplit (Faversham, UK), and a Hamamatsu Orca camera (Hamamatsu City, Japan) controlled by Kinetics software. For FRET measurements, CFP was excited at 430 nm for 400 ms. Because of the very high FRET efficiency of FLII12 Pglu600μ ? , which results in low CFP signal^7, we opted for not using the CFP signal in our protocol. Instead, YFP/citrine was excited for 50 ms, which provided a sugar-insensitive denominator for the FRET ratio. […]

| Structure (SMILES) | glycolytic rate obtained with the GLUT inhibitor | effect on the intracellular concentration of glucose |
| --- | --- | --- |
| O=C(CCc1ccc(O)cc1)c1c(O)cc(O)cc1O [Phloretin] | 1.7 ± 0.3 µM/s | – |
| C=C1[C@@H](C)[C@H]2[C@H](Cc3ccccc3)NC(=O)[C@]23OC(=O)/C=C/[C@H](O)CCC[C@@H](C)C/C=C/[C@H]3[C@@H]1O [cytochalasin B] | 1.8 ± 0.3 µM/s | linear decrease in the concentration of glucose |
| C=C1[C@@H](C)[C@H]2[C@H](Cc3ccccc3)NC(=O)[C@]23[C@H](OC(C)=O)/C=C/[C@@](C)(O)C(=O)[C@@H](C)C/C=C/[C@H]3[C@@H]1O [cytochalasin D] | – | did not affect the concentration of glucose |
